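How tested: cells in 96-well plates exposed to compound for 48 hours at five concentrations. GI50 is the concentration that inhibits growth by half.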 Activity calls are given as the source filed them. Cut-off read from the data, not from the text of the source: active = GI50 up to about 1.1 µM and inactive = higher.
Columns and labels:
Assay in all cases: DTP human tumour cell line panel, 48 h
A498 = system: A498
A549 = system: A549
DU-145 = system: DU-145
HOP-92 = system: HOP-92
LOX IMVI = system: LOX IMVI
MCF7 = system: MCF7
MDA-N = system: MDA-N
MOLT-4 = system: MOLT-4
NCI-H460 = system: NCI-H460
NCI-H522 = system: NCI-H522
NCI/ADR-RES = system: NCI/ADR-RES
OVCAR-8 = system: OVCAR-8
SF-268 = system: SF-268
SK-MEL-2 = system: SK-MEL-2
SNB-75 = system: SNB-75
T47D = system: T47D
U-251 = system: U-251
UACC-62 = system: UACC-62

Structure (SMILES) | GI50 (A498) | GI50 (A549) | GI50 (DU-145) | GI50 (HOP-92) | GI50 (LOX IMVI) | GI50 (MCF7) | GI50 (MDA-N) | GI50 (MOLT-4) | GI50 (NCI-H460) | GI50 (NCI-H522) | GI50 (NCI/ADR-RES) | GI50 (OVCAR-8) | GI50 (SF-268) | GI50 (SK-MEL-2) | GI50 (SNB-75) | GI50 (T47D) | GI50 (U-251) | GI50 (UACC-62)
CC(C)(C)c1ccc(O)c(CN(Cc2cc(C(C)(C)C)ccc2O)c2ccccc2)c1 | 14.8 µM (inactive) | 17.5 µM (inactive) | 19.1 µM (inactive) | 16.2 µM (inactive) | 13.7 µM (inactive) | 18.8 µM (inactive) | 16.6 µM (inactive) | 15.6 µM (inactive) | 16.5 µM (inactive) | 13.3 µM (inactive) | 19.1 µM (inactive) | 19.1 µM (inactive) | 17.6 µM (inactive) | 17.6 µM (inactive) | 18.7 µM (inactive) | 15.8 µM (inactive) | 15.1 µM (inactive) | 14.7 µM (inactive)
CCOC(=O)Oc1ccc2c(c1)c(=O)c1c(NCCN(CC)CC)ccc3nnn2c31 | 6.52 µM (inactive) | 0.2 µM (active) | 1.89 µM (inactive) | 4.22 µM (inactive) | 1.18 µM (inactive) | 0.392 µM (active) | 2.94 µM (inactive) | < 0.0166 µM (active) | < 0.0209 µM (active) | 0.69 µM (active) | 2.39 µM (inactive) | 0.577 µM (active) | 1.43 µM (inactive) | 13.2 µM (inactive) |  | 14.8 µM (inactive) | 1.73 µM (inactive) | 11.5 µM (inactive)
COc1ccc(-c2nc(O)c3ccccc3n2)cc1 | 47 µM (inactive) | > 100 µM (inactive) | > 100 µM (inactive) | > 100 µM (inactive) | 39.8 µM (inactive) | 35.9 µM (inactive) | > 100 µM (inactive) | > 100 µM (inactive) |  | 52.7 µM (inactive) | 27.1 µM (inactive) | 32.4 µM (inactive) | > 100 µM (inactive) | > 100 µM (inactive) | 40.4 µM (inactive) | 84.5 µM (inactive) | 24.8 µM (inactive) | 71.1 µM (inactive)
CC1OC(OC2C(O[C@H]3CC[C@@]4(C)C(=CC[C@H]5[C@@H]6C[C@@H]7O[C@]8(CC[C@@H](CO)CO8)[C@@H](C)[C@@H]7[C@@]6(C)CC[C@@H]54)C3)OC(CO)C(O)C2OC2OC(CO)C(O)C(O)C2O)C(O)C(O)C1O (stereo partly drawn) | 2.01 µM (inactive) | 2.07 µM (inactive) | 1.84 µM (inactive) | 1.76 µM (inactive) | 1.85 µM (inactive) | 1.77 µM (inactive) | 1.68 µM (inactive) |  | 1.78 µM (inactive) | 1.72 µM (inactive) | 1.97 µM (inactive) | 1.78 µM (inactive) | 1.85 µM (inactive) | 2.03 µM (inactive) | 1.58 µM (inactive) | 1.87 µM (inactive) | 1.79 µM (inactive) | 1.83 µM (inactive)
Cn1ncc(NCCn2cnc3c2c(=O)n(C)c(=O)n3C)c(Cl)c1=O | > 100 µM (inactive) | > 100 µM (inactive) | > 100 µM (inactive) | > 100 µM (inactive) | > 100 µM (inactive) | > 100 µM (inactive) | > 100 µM (inactive) | > 100 µM (inactive) | > 100 µM (inactive) | > 100 µM (inactive) | > 100 µM (inactive) | > 100 µM (inactive) | > 100 µM (inactive) | > 100 µM (inactive) |  | > 100 µM (inactive) | > 100 µM (inactive) | > 100 µM (inactive)
Cc1ccc(SCN2CCCCC2)cc1.O=C(Cl)c1ccc([N+](=O)[O-])cc1 | 2.76 µM (inactive) | 21.2 µM (inactive) | 13.7 µM (inactive) | 9.18 µM (inactive) | 2.97 µM (inactive) | 6.55 µM (inactive) | 6.25 µM (inactive) | 3.37 µM (inactive) |  | 1.92 µM (inactive) | 14 µM (inactive) | 25.9 µM (inactive) | 5.98 µM (inactive) | 14.7 µM (inactive) | 9.42 µM (inactive) | 12.2 µM (inactive) | 11.2 µM (inactive) | 13.7 µM (inactive)

From ChEMBL document CHEMBL1201862, “PubChem BioAssay data set” (2004)
